According to ChEMBL document CHEMBL1124021, “Novel type of potential anticancer agents derived from chrysophanol and emodin. Some structure-activity relationship studies” (1988):
pIC50: −log10 of the molar value.

test system: L1210; experiment: In vitro inhibition of L1210 mouse leukemia cell proliferation.; type: functional; conditions: read-out: ID50 (the source's name)

Compound | pIC50
COc1cc(OC)c2c(c1)C(=O)c1cc(CN(CCCl)CCCl)cc(OC)c1C2=O | 5.58
CCN(CC)Cc1cc(O)c2c(c1)C(=O)c1cc(OC)cc(O)c1C2=O | 5.94
O=C1c2cccc(O)c2C(=O)c2c(O)cc(CN(CCCl)CCCl)cc21 | 6.89
CCN(CC)Cc1cc(OC)c2c(c1)C(=O)c1cc(OC)cc(OC)c1C2=O | 5.16
COc1cccc2c1C(=O)c1c(OC)cc(CN(CCCl)CCCl)cc1C2=O | 4.90
COc1cc(O)c2c(c1)C(=O)c1cc(CN(CCCl)CCCl)cc(O)c1C2=O | 7.64
COc1cc(CN(CCCl)CCCl)cc2c1C(=O)c1c(O)cccc1C2=O | 5.85
COc1cc(OC)c2c(c1)C(=O)c1cc(CN(CCCl)CCCl)cc(O)c1C2=O | 5.76
Cc1cc(O)c2c(c1)C(=O)c1cccc(O)c1C2=O [CHRYSOPHANOL] | < 3.41
Cc1cc(O)c2c(c1)C(=O)c1cc(O)cc(O)c1C2=O [EMODIN] | 4.88

Next, values leading:

pIC50 | Compound
4.63 | COc1cccc2c1C(=O)c1c(O)cc(CN(CCO)CCO)cc1C2=O
< 4.56 | COc1cc(OC)c2c(c1)C(=O)c1cc(CN(CCO)CCO)cc(OC)c1C2=O
3.89 | CCN(CC)Cc1cc(OC)c2c(c1)C(=O)c1cccc(OC)c1C2=O
5.23 | O=C1c2cccc(O)c2C(=O)c2c(O)cc(CN(CCO)CCO)cc21
5.56 | CCN(CC)Cc1cc(O)c2c(c1)C(=O)c1cccc(O)c1C2=O
4.86 | COc1cc(O)c2c(c1)C(=O)c1cc(CN(CCO)CCO)cc(O)c1C2=O
4.92 | CCN(CC)Cc1cc(OC)c2c(c1)C(=O)c1cccc(O)c1C2=O
< 4.30 | COc1cccc2c1C(=O)c1c(OC)cc(CN(CCO)CCO)cc1C2=O
